Source: US12291548B2, “Compounds, compositions, and methods for the treatment of disease” (priority 2018, dated 2025)

What was measured:
[1] = target: T1, HAQ isoform human STING (hSTING) (Homo sapiens, UniProt Q86WV6, G230A/H232R/R293Q/R71H); assay: THP1 dual reporter assay (ISRE-inducible Lucia, NF-κB inducible SEAP); type: cell-based; conditions: THP1 cells naturally expressing HAQ hSTING, 20 h incubation, vs DMSO-treated sample; for ISRE (IRF) reporter activity, induction: QUANTI-luc
T1 construct: THP1 cells naturally expressing HAQ isoform human STING (hSTING); endogenous in cells; host or cells: THP1 cells stably transfected with ISRE-inducible Lucia and NF-κB inducible SEAP reporters
T1 sequence (Q86WV6 whole entry R71H/G230A/H232R/R293Q, canonical isoform): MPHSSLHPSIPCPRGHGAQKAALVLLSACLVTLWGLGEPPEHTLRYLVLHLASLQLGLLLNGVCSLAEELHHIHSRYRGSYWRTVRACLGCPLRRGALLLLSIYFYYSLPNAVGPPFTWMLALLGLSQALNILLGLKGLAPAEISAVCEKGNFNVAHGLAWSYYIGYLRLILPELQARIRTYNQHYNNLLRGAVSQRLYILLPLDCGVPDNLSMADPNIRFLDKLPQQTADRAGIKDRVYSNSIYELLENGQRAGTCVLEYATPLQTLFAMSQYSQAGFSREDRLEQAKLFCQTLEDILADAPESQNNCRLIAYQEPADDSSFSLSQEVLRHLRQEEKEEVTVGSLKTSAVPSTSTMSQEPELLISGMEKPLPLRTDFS
Procedure: (§1) THP1 cells naturally expressing HAQ isoform human STING (hSTING), stably transfected with an ISRE-inducible Lucia and NF-κB inducible SEAP were treated with various concentrations of Cmd 1 or DMSO control. After 20 h incubation, levels of Lucia and SEAP were measured using QUANTI-luc and QUANTI-Blue to measure and ISRE and NF-κB reporter activity respectively. Percent induction was calculated from fold change in activity compared to DMSO-treated sample.
as §1, with “sample. EC50 values were generated by curve fit in Xlfit.” for “sample.”
as §1, with “Cmd 2” for “Cmd 1”, “reporter activity, respectively, in Xlfit.” for “reporter activity respectively.”
as §1, with “Cmd 2” for “Cmd 1”, “reporter activity, respectively, in Xlfit.” for “reporter activity respectively.”, “sample. EC50 values were generated by curve fit.” for “sample.”

STING CTD = STING CTD (Homo sapiens, UniProt Q86WV6); assay: Thermal shift assay with STING CTD; type: binding; conditions: 0.1 mg/mL STING CTD, compound 2 mM to 0.05 uM, SYPRO Orange, 25-80° C.
STING CTD, sequence (Q86WV6 135-379 limits assumed): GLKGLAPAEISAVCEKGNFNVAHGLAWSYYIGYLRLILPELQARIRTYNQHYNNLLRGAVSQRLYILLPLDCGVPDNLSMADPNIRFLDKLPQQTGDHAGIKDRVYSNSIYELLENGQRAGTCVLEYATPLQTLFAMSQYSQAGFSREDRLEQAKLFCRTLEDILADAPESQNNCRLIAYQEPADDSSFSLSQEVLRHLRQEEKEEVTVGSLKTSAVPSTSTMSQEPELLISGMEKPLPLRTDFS
Procedure: Thermal shift assay was conducted with 0.1 mg/mL of STING CTD with various dilutions of compound 1 from 2 mM to 0.05 uM in 10 mM HEPES (pH 7.5), 140 mM NaCl and a 5 fold dilution of SYPRO Orange dye (Invitrogen). The fluorescence signal as a function of temperature was recorded using a Real Time PCR machine (Thermo Fisher). The temperature gradient was performed in the range of 25−80° C. with a ramp of 0.2° C. over the course of 60 min. Data were analyzed with the Thermal Shift Software (Thermo Fisher), DSF analysis, and the Derivative model was used to fit the fluorescence data to obtain the midpoint temperature for the thermal protein unfolding transition (Tm) using the curve-fitting software Prism.

mouse STING = target: T2, mouse STING (Mus musculus, UniProt Q3TBT3); assay: RAW macrophage ISRE-inducible Lucia reporter assay; type: cell-based; conditions: mouse derived RAW macrophages, 20 h incubation, QUANTI-luc, vs DMSO-treated sample
T2 construct: Mouse derived RAW macrophages stably transfected with an ISRE-inducible Lucia; endogenous in cells; host or cells: Mouse derived RAW macrophages stably transfected with an ISRE-inducible Lucia reporter
T2 sequence (Q3TBT3 1-378): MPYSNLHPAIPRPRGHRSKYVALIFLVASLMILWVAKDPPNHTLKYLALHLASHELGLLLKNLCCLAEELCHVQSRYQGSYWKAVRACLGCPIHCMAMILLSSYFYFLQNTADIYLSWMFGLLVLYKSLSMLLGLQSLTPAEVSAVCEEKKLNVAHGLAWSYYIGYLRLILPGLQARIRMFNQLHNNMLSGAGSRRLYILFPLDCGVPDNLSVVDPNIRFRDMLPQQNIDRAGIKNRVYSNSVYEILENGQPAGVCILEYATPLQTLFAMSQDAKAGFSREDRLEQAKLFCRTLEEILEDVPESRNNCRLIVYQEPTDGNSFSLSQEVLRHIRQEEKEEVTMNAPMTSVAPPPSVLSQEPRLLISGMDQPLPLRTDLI
Procedure: (§2) Mouse derived RAW macrophages stably transfected with an ISRE-inducible Lucia were treated with various concentrations of compound 1 or DMSO control. After 20 h incubation, levels of Lucia were measured using QUANTI-luc to measure and ISRE reporter activity. Percent induction was calculated from fold change in activity compared to DMSO-treated sample.
as §2, with “sample. EC50 values were generated by curve fit in Xlfit.” for “sample.”
as §2, with “2” for “1”
Mouse derived RAW macrophages stably transfected with an ISRE-inducible Lucia were treated with various concentrations of compound 2 or DMSO control. After 20 h incubation, levels of Lucia were measured using QUANTI-luc to measure and ISRE reporter activity. […]

| Structure (SMILES) | ISRE (IRF) reporter activity, induction [1] | Binding to STING (thermal shift, Tm) (STING CTD) | ISRE (IRF) reporter activity, induction (mouse STING) | NF-κB reporter activity, induction ([1]; QUANTI-Blue (SEAP)) |
| --- | --- | --- | --- | --- |
| Nc1ncnc2c1ncn2[C@@H]1O[C@@H]2COP(=O)(S)O[C@@H]3[C@H](F)[C@@H](COP(=O)(O)O[C@@H]1[C@@H]2F)O[C@H]3n1ccc(=O)[nH]c1=O (stereo partly drawn) [compound 1] | activates natural allelic variant HAQ to induce IRF | binds to STING with high affinity | activates mouse STING to induce IRF in RAW macrophages |  |
| CCCCCCCCCCOc1ccc(C(=O)Oc2ccc(CSP3(=O)OC[C@H]4O[C@@H](n5cnc6c(N)ncnc65)[C@H](OP(=O)(O)OC[C@H]5O[C@@H](n6ccc(=O)[nH]c6=O)[C@H](O3)[C@@H]5F)[C@@H]4F)cc2)cc1 (stereo partly drawn) [compound 2] | activates natural allelic variant HAQ to induce IRF |  | activates mouse STING to induce IRF in RAW macrophages | activates natural allelic variant HAQ to induce IRF and NF-κB |
